# US11332756B2, “RNA virus vectors carrying DAI and RIPK3” (Institute For Cancer Research, priority 2016, dated 2022)
# *1 amine or outer side, *2 acyl side, *3 side chain or, on linkers, in order; H or OH if unused. Where a SMILES comes first, the peptide text is derived from it. Bridges are numbered along the chain shown (N, C = ends). Roman numbers before positions name the chains, in order. [ ]: non-standard residue; d: D form. The star is where a group is joined. Actinocin(9to1) = Cc1c2oc3c(C)ccc(C(=O)[*:1])c3nc-2c(C(=O)[*:2])c(N)c1=O; NMeV = CN[C@H](C(=O)O)C(C)C; Cbz = O=C(OCc1ccccc1)*; Sar = CNCC(=O)O; CH2F = FC*
# Key:
# RIPK3-RIPK1 necrosome [1] = molecular target: T1, RIPK3-RIPK1 necrosome (Mus musculus, UniProt Q9QZL0); experiment: IAV-induced RIPK3-RIPK1 necrosome formation (RIPK3 immunoprecipitation) in MEFs; format: cell-based, murine; details: for IAV (PR8)-induced RIPK3-RIPK1 necrosome / complex formation: PR8-infected MEFs, cells pre-treated with agent, RIPK3 immunoprecipitation
# T1 construct: RIPK3 was immunoprecipitated from lysates of PR8-infected MEFs; endogenous in cells; host or cells: wild-type mouse embryo fibroblasts (MEFs)
# T1 sequence (Q9QZL0 whole entry): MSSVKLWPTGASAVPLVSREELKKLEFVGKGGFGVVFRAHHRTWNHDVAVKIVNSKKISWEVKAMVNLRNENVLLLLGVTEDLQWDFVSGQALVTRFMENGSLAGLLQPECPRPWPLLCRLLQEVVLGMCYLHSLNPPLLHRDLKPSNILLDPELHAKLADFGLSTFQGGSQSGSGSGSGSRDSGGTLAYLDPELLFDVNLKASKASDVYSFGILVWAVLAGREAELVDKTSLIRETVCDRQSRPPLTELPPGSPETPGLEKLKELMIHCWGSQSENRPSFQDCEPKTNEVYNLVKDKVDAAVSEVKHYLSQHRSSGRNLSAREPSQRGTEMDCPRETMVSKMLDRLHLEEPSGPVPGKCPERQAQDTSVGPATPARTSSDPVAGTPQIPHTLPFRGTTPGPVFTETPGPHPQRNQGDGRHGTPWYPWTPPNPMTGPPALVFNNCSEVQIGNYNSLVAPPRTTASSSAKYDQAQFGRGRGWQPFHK
# From the text: (§1) IAV replication results in assembly of a RIPK3 complex containing RIPK1, FADD and MLKL. A molecular feature of RIPK3 dependent cell death is the stimulus-driven formation of a molecular complex called the necrosome, comprising as its core phosphorylated forms of RIPK3 and RIPK1, together with FADD and MLKL. From the necrosome, RIPK3 can activate both necroptosis and apoptosis, depending on target availability or RIPK3 activity. To test if IAV induced formation of a necrosome, RIPK3 was immunoprecipitated from lysates of PR8-infected MEFs, and immunoprecipitates were examined for the presence of slower-mobility forms of phosphorylated RIPK1. PR8 activated necrosome formation to a significant extent, as did the combination of PR8+zVAD (see, FIG. 4A, left and middle panels). Like TNF-α (see, FIG. 4A, right panels), IAV infection also drove the recruitment of FADD and MLKL into the RIPK3-RIPK1 necrosome.
# IAV (PR8) = format: cell-based, Influenza A virus
# RIPK3-RIPK1 necrosome [2] = molecular target: T1, RIPK3-RIPK1 necrosome; experiment: TNF-α-induced necrosome assembly in MEFs; format: cell-based, murine; details: same doses as in PR8 experiment; not shown
# From the text: as §1
# [3] = system: wild-type MEFs infected with PR8; format: cell-based, murine
# [4] = system: ripk1−/− MEFs infected with PR8; format: cell-based, murine
# [5] = system: TCZ-treated wild-type MEFs; format: cell-based, murine
# [6] = system: mlkl−/− MEFs infected with PR8; format: cell-based, murine
# [7] = system: MLKL phosphorylation and cleavage of caspase 8; experiment: Immunoblot of phosphorylated MLKL and cleaved caspase 8 in PR8-infected MEFs; format: cell-based, murine; details: wild-type MEFs, zVAD 50 μM
# [8] = system: ripk3−/− MEFs infected with PR8; format: cell-based, murine
# [9] = system: apoptosis activated by TRAIL and cycloheximide in MEFs; experiment: Apoptosis induced by TRAIL and cycloheximide; format: cell-based, murine; details: TRAIL 2 μg/ml + CHX 250 ng/ml; anti-TRAIL-R2 10 μg/ml; zVAD same dose as in PR8 test
compound,measurement,setting,value
"Cc1c2oc3c(C)ccc(C(=O)N[C@@H]4C(=O)N[C@H](C(C)C)C(=O)N5CCC[C@H]5C(=O)N(C)CC(=O)N(C)[C@@H](C(C)C)C(=O)O[C@@H]4C)c3nc-2c(C(=O)N[C@@H]2C(=O)N[C@H](C(C)C)C(=O)N3CCC[C@H]3C(=O)N(C)CC(=O)N(C)[C@@H](C(C)C)C(=O)O[C@@H]2C)c(N)c1=O [ActD, Actinomycin D] (I: T[dV]P[Sar][NMeV] / II: T[dV]P[Sar][NMeV]; ester I:1-I:C, II:1-II:C; linker I:N-II:N via Actinocin(9to1))",IAV (PR8)-induced RIPK3-RIPK1 necrosome / complex formation,RIPK3-RIPK1 necrosome [1],effectively prevented
same,viral replication,IAV (PR8),effectively prevented
same,effect on TNF-α-induced necrosome assembly,RIPK3-RIPK1 necrosome [2],Neither ActD nor CHX at these doses affected
"C[C@@H]1C[C@@H]([C@H](O)CC2CC(=O)NC(=O)C2)C(=O)[C@@H](C)C1 [CHX, cycloheximide]",IAV (PR8)-induced RIPK3-RIPK1 necrosome / complex formation,RIPK3-RIPK1 necrosome [1],effectively prevented
same,viral replication,IAV (PR8),effectively prevented
same,effect on TNF-α-induced necrosome assembly,RIPK3-RIPK1 necrosome [2],Neither ActD nor CHX at these doses affected
CN1C(=O)[C@@H](NC(=O)c2cc(Cc3ccccc3)on2)COc2ccccc21 [GSK'481],"protection of viability after PR8 infection, inhibitor alone",[3],did not have any discernible protective effect
same,IAV (PR8)-induced RIPK3-RIPK1 necrosome / complex formation,RIPK3-RIPK1 necrosome [1],inability of these agents to prevent IAV-driven necrosome formation
Cc1cc(-c2cnc(N)c3c(-c4ccc5scnc5c4)csc23)n(C)n1 [GSK'843],protection from PR8-induced cell death in ripk1−/− MEFs,[4],almost-fully protected
same,"protection of viability after PR8 infection, inhibitor alone",[3],failed to prevent PR8-induced cell death
same,protection against TNF-α-induced necroptosis / cell death,[5],fully protective
same,IAV (PR8)-induced RIPK3-RIPK1 necrosome / complex formation,RIPK3-RIPK1 necrosome [1],blocked PR8-induced necrosome assembly
CC(C)S(=O)(=O)c1ccc2nccc(Nc3ccc4scnc4c3)c2c1 [GSK'872],protection from PR8-induced cell death in ripk1−/− MEFs,[4],almost-fully protected
same,"protection of viability after PR8 infection, inhibitor alone",[3],failed to prevent PR8-induced cell death
same,protection against TNF-α-induced necroptosis / cell death,[5],fully protective
same,IAV (PR8)-induced RIPK3-RIPK1 necrosome / complex formation,RIPK3-RIPK1 necrosome [1],blocked PR8-induced necrosome assembly
CC(C)(C)C(=O)N1N=CC[C@H]1c1ccccc1 [GSK'963],"protection of viability after PR8 infection, inhibitor alone",[3],did not have any discernible protective effect
same,IAV (PR8)-induced RIPK3-RIPK1 necrosome / complex formation,RIPK3-RIPK1 necrosome [1],inability of these agents to prevent IAV-driven necrosome formation
"CN1C(=O)C(Cc2c[nH]c3ccccc23)NC1=S (stereo not drawn) [Nec-1, Necrostatin 1]","protection of viability after PR8 infection, inhibitor alone",[3],did not have any discernible protective effect
same,IAV (PR8)-induced RIPK3-RIPK1 necrosome / complex formation,RIPK3-RIPK1 necrosome [1],inability of these agents to prevent IAV-driven necrosome formation
Cc1onc(-c2ccccc2)c1C(=O)N1CCN(c2ccc([N+](=O)[O-])cc2Cl)CC1 [nucleozin],IAV (PR8)-induced RIPK3-RIPK1 necrosome / complex formation,RIPK3-RIPK1 necrosome [1],potently blocked
same,viral replication,IAV (PR8),abrogated viral replication
"CC[C@H](C)[C@H](NC(=O)OCc1ccccc1)C(=O)N[C@@H](CCC(=O)OC)C(=O)N[C@H](C(=O)N[C@@H](CC(=O)OC)C(=O)CF)[C@@H](C)O [zIETD, zIETD.fmk] (Cbz-IE(OMe)TD(OMe)-CH2F)",protection against PR8 compared with zVAD,[6],less protection against PR8 than zVAD
same,rescue from PR8-induced cell death in mlkl−/− MEFs,[6],significant protection
"COC(=O)C[C@H](NC(=O)[C@H](C)NC(=O)[C@@H](NC(=O)OCc1ccccc1)C(C)C)C(=O)CF [zVAD, zVAD.fmk] (Cbz-Val-Ala-Asp(OMe)-CH2F)",IAV-induced cleavage of caspase 8,[7],inhibited
same,"protection of viability after PR8 infection, inhibitor alone",[3],did not protect
same,viability of PR8-infected ripk3−/− MEFs,[8],remained mostly alive
same,rescue from PR8-induced cell death in mlkl−/− MEFs,[6],fully rescued
same,protection against apoptosis induced by TRAIL and cycloheximide,[9],prevented apoptosis
same,necrosome formation induced by the agent alone,"RIPK3-RIPK1 necrosome [1]; zVAD alone, 25 μM, no virus",did not induce detectable necrosome formation
